Measurements as given in patent US12559750B2, “Methods and compositions for treatment of polycystic kidney disease” (Regulus Therapeutics Inc., priority 2021, dated 2026).
Blank lines part the entries; values can stand above or below the sequence they belong to. e = 2'-O-(2-methoxyethyl) (MOE); k = constrained ethyl (cEt); d = 2'-deoxy (DNA); m = 2'-O-methyl; f = 2'-fluoro

Molecular target: AMPA-R
Test: [3H]AMPA radioligand binding assay on rat brain synaptic membranes;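 note: competition binding in which test compounds at rising concentrations displace [3H]AMPA from AMPA-R on rat brain synaptic membranes, with reduced bound radioligand as read-out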
Details: for % Inhibition @ Concentration 100 uM: Table 8 (3′-terminal nucleobase/sugar variants); for % Inhibition @ Concentration 0.1 uM: Table 8, 0.1 uM; for % Inhibition @ Concentration 1 uM: Table 8, 1 uM; for % Inhibition @ Concentration 10 uM: Table 8, 10 uM
Protocol: The activity of anti-miR-17 compounds was evaluated in a radioligand binding assay which measured the binding of the [^3H] AMPA ligand to the AMPA-R present on rat brain synaptic membranes, in the presence of increasing concentrations of anti-miR-17 compound, anti-miR-17 compounds with affinity for the AMPA-R will bind to and compete with the binding of the [^3H] AMPA ligand.
5.0 nM of the ligand [^3H] AMPA, 1.0 mM of the non-specific ligand L-Glutamic acid, and anti-miR compound at uM concentrations were incubated with synaptic membranes prepared from Wistar rat cerebral cortex for 90 minutes.
The compounds were tested in the radioligand binding assay described herein, to determine the ability of the anti-miR-17 compounds to and compete with the binding of the [3H] AMPA ligand.

Sequence: ASGSCMASCMUSUMUSGS [RG-NG-1003]
IC50 (Experiment #1): 9.26 µM
% Inhibition @ 0.1 uM (Experiment #1, 0.1 uM): 5.7%
% Inhibition @ 1 uM (Experiment #1, 1 uM): 13.9%
% Inhibition @ 10 uM (Experiment #1, 10 uM): 56.9%
% Inhibition @ 100 uM (Experiment #1, 100 uM): 77.8%

Sequence: ASGSCSASCSUSUSUS [RG-NG-1002]
IC50 (Experiment #1): > 100 µM
% Inhibition @ 0.1 uM (Experiment #1, 0.1 uM): 0%
% Inhibition @ 1 uM (Experiment #1, 1 uM): −2.0%
% Inhibition @ 10 uM (Experiment #1, 10 uM): −16.9%
% Inhibition @ 100 uM (Experiment #1, 100 uM): 24.0%
IC50 (Experiment #2): > 100 µM
% Inhibition @ 0.1 uM (Experiment #2, 0.1 uM): −5.5%
% Inhibition @ 1 uM (Experiment #2, 1 uM): 4.6%
% Inhibition @ 10 uM (Experiment #2, 10 uM): −2.1%
% Inhibition @ 100 uM (Experiment #2, 100 uM): 24.6%

Sequence: CETEGSCEAECETEGSTEADASGSCMAFCFUFUMUSGS (CTGCACTGTAAGCACUUUG; sugars from the 5' end eekeeeekedkkmfffmkk, backbone and methylation of C not given here) [RG-NG-1040]
IC50 (Table 8): 28.6 µM
% Inhibition @ Concentration 100 uM: 64.1%
% Inhibition @ Concentration 0.1 uM: 10.4%
% Inhibition @ Concentration 1 uM: 14.4%
% Inhibition @ Concentration 10 uM: 38.9%

Sequence: TEAASGSCMAFCFUFUMUSCS (TAAGCACUUUC; 2'-MOE at 1, cEt at 3, 4, 10, 11, 2'-O-methyl at 5, 9, 2'-fluoro at 6, 7, 8, other sugars and backbone not given here) [RG-NG-1021]
IC50 (Experiment #3): > 100 µM
% Inhibition @ 0.1 uM (Experiment #3, 0.1 uM): −2%
% Inhibition @ 1 uM (Experiment #3, 1 uM): −10.9%
% Inhibition @ 10 uM (Experiment #3, 10 uM): −11.5%
% Inhibition @ 100 uM (Experiment #3, 100 uM): −1.5%

Sequence: TEAFASGSCMAFCFUFUMUSCS (TAAGCACUUUC; 2'-MOE, S-cEt, 2'-F, 2'-OMe modifications; modified_base 1 OTHER; thymine; misc_feature 1..11 Synthetic: RG-NG-1022; modified_base 1..2 OTHER; 2'-O-methoxyethyl nucleoside; modified_base 3..4 OTHER; S-constrained ethyl nucleoside; modified_base 5 OTHER; 2'-O-methyl nucleoside; modified_base 6..8 OTHER; 2'-fluoro nucleoside; modified_base 9 OTHER; modified_base 10..11 OTHER)
IC50 (Experiment #3): > 100 µM
% Inhibition @ 0.1 uM (Experiment #3, 0.1 uM): −23.5%
% Inhibition @ 1 uM (Experiment #3, 1 uM): −5.4%
% Inhibition @ 10 uM (Experiment #3, 10 uM): −7%
% Inhibition @ 100 uM (Experiment #3, 100 uM): −10.9%

Sequence: TEGSTEAASGSCMAFCFUFUMUSCS (TGTAAGCACUUUC; anti-miR; 2'-MOE at 1, 3, cEt at 2, 5, 6, 12, 13, 2'-O-methyl at 7, 11, 2'-fluoro at 8, 9, 10, other sugars and backbone not given here) [RG-NG-1020]
IC50 (Experiment #3): > 100 µM
% Inhibition @ 0.1 uM (Experiment #3, 0.1 uM): 17%
% Inhibition @ 1 uM (Experiment #3, 1 uM): 6.6%
% Inhibition @ 10 uM (Experiment #3, 10 uM): −23.3%
% Inhibition @ 100 uM (Experiment #3, 100 uM): −7.9%

Sequence: USASAMGCSASCSUMUMUSGS (antisense UAAGCACUUUG; cEt at 1, 2, 5, 6, 7, 10, 11, 2'-O-methyl at 3, 8, 9, other sugars and backbone not given here) [RG-NG-1005]
IC50 (Experiment #1): > 100 µM
% Inhibition @ 0.1 uM (Experiment #1, 0.1 uM): 10.8%
% Inhibition @ 1 uM (Experiment #1, 1 uM): −1.3%
% Inhibition @ 10 uM (Experiment #1, 10 uM): 0.8%
% Inhibition @ 100 uM (Experiment #1, 100 uM): 28.3%

Sequence: USASASGSCSASCSUSUSUSGS [RG-NG-1004]
IC50 (Experiment #1): 17.3 µM
% Inhibition @ 0.1 uM (Experiment #1, 0.1 uM): −4.7%
% Inhibition @ 1 uM (Experiment #1, 1 uM): 4.7%
% Inhibition @ 10 uM (Experiment #1, 10 uM): 44.2%
% Inhibition @ 100 uM (Experiment #1, 100 uM): 76.1%

The remaining lines, values ahead:

IC50 (Table 8): ≥ 100 µM
% Inhibition @ Concentration 100 uM: 10.7%
% Inhibition @ Concentration 0.1 uM: 11.1%
% Inhibition @ Concentration 1 uM: 9.2%
% Inhibition @ Concentration 10 uM: 2.4%
Sequence: ASGSCMAFCFUFUMUSDM [RG-NG-1037]

% Inhibition @ Concentration 100 uM: 30.2%
% Inhibition @ Concentration 0.1 uM: 27.3%
% Inhibition @ Concentration 1 uM: 27%
% Inhibition @ Concentration 10 uM: 35.8%
Sequence: ASGSCMAFCFUFUMUSED [RG-NG-1039]

IC50 (Table 8): 0.13 µM
% Inhibition @ Concentration 100 uM: 97.3%
% Inhibition @ Concentration 0.1 uM: 44.9%
% Inhibition @ Concentration 1 uM: 80.9%
% Inhibition @ Concentration 10 uM: 96.5%
Sequence: ASGSCMAFCFUFUMUSGD [RG-NG-1033]

IC50 (Experiment #3): 1.85 µM
% Inhibition @ 0.1 uM (Experiment #3, 0.1 uM): −3.8%
% Inhibition @ 1 uM (Experiment #3, 1 uM): 36.5%
% Inhibition @ 10 uM (Experiment #3, 10 uM): 84.1%
% Inhibition @ 100 uM (Experiment #3, 100 uM): 96.4%
Sequence: ASGSCMAFCFUFUMUSGE [RG-NG-1025]

IC50 (Table 8): 1.2 µM
% Inhibition @ Concentration 100 uM: 99.7%
% Inhibition @ Concentration 0.1 uM: 14.3%
% Inhibition @ Concentration 1 uM: 44.8%
% Inhibition @ Concentration 10 uM: 85.2%
Sequence: ASGSCMAFCFUFUMUSGM [RG-NG-1034]

IC50 (Table 8): 0.76 µM
% Inhibition @ Concentration 100 uM: 98.5%
% Inhibition @ Concentration 0.1 uM: 27.2%
% Inhibition @ Concentration 1 uM: 46.3%
% Inhibition @ Concentration 10 uM: 91.3%
Sequence: ASGSCMAFCFUFUMUSIM [RG-NG-1035]

IC50 (Table 8): 18.6 µM
% Inhibition @ Concentration 100 uM: 78.1%
% Inhibition @ Concentration 0.1 uM: 19.2%
% Inhibition @ Concentration 1 uM: 11.3%
% Inhibition @ Concentration 10 uM: 36.2%
Sequence: ASGSCMAFCFUFUMUSNM [RG-NG-1036]

IC50 (Experiment #2): > 100 µM
% Inhibition @ 0.1 uM (Experiment #2, 0.1 uM): −3.3%
% Inhibition @ 1 uM (Experiment #2, 1 uM): −1.1%
% Inhibition @ 10 uM (Experiment #2, 10 uM): −3.5%
% Inhibition @ 100 uM (Experiment #2, 100 uM): 2.3%
Sequence: ASGSCMALCFUFUMUSCS [RG-NG-1026]

IC50 (Experiment #2): > 100 µM
% Inhibition @ 0.1 uM (Experiment #2, 0.1 uM): −2.2%
% Inhibition @ 1 uM (Experiment #2, 1 uM): 2.3%
% Inhibition @ 10 uM (Experiment #2, 10 uM): −2.2%
% Inhibition @ 100 uM (Experiment #2, 100 uM): 3%
Sequence: ASGSCSAFCFUFUMUSCS [RG-NG-1027]

IC50 (Experiment #2): > 100 µM
% Inhibition @ 0.1 uM (Experiment #2, 0.1 uM): 15.7%
% Inhibition @ 1 uM (Experiment #2, 1 uM): 2.1%
% Inhibition @ 10 uM (Experiment #2, 10 uM): 2%
% Inhibition @ 100 uM (Experiment #2, 100 uM): 2.7%
Sequence: ASGSCSALCFUFUMUSCS [RG-NG-1028]
